Test results from patent US20260314597A1, “A NOVEL APPROACH TO INTERFERE IN THE PHENYLPROPANOID BIOSYNTHETIC PATHWAY TO REDUCE PINK-RIB DISORDER IN FRESH LETTUCE” (University of Florida Research Foundation, Inc., priority 2022, published 2026).
“Also recorded” adds a separate entry of the source.

Experiments:
[1] = test system: chlorogenic acid concentration in homogenized lettuce tissue; details: L-cysteine; 24 h at 25° C.; cited from earlier work
[2] = test system: metabolites in wounded Romaine lettuce midrib; assay: Untargeted LC-MS/MS metabolomics of melatonin-treated wounded midribs (Test 3); format: in vivo, lettuce (Romaine 'Manatee')
Description: For Test 1, the evaluations for pink rib development, protein quantification, and enzyme activity were conducted with Romaine and iceberg lettuce heads (36 heads per type; cultivars unknown) purchased (February 2020) upon arrival at a local grocery store in Gainesville, FL, and immediately transported to the Postharvest Horticulture Laboratory at the University of Florida in Gainesville, FL. For Test 2, metabolite extraction and detection were conducted with commercially grown, harvested, and cooled Romaine (‘Tall Guzmaine’) and iceberg (‘Chosen’) lettuce (December 2020) grown in Belle Glade, FL. For Test 3, untargeted metabolomics was performed using commercially grown, harvested, and cooled Romaine (‘Manatee’) lettuce grown in Belle Glade, FL (April 2021). To keep the lettuce head samples cool while preventing freeze damage during transport, a 3- to 6-inch layer of crushed ice was placed on the bottom of each 114-L cooler. A piece of waxed, corrugated fiberboard was placed on top of the ice prior to packing with the lettuce samples for transport the same day to the Postharvest Horticulture Laboratory in Gainesville (approximately 4 h distant).
In all tests, experimental setup began immediately upon arrival to the laboratory. 90 outer leaves were randomly selected from 18 to 22 lettuce heads that met commercial and damage-free quality standards. A midrib segment (12.5 cm) was excised from the center of each leaf and excess leaf blade tissue was trimmed parallel to the midrib. This procedure was adapted from the wounding procedure of Cantwell (2016). Each midrib was then partially sliced transversally at 1.3-cm increments along the midrib. Midribs (n=15) were immediately immersed for 30 s in one of five treatment solutions: deionized water (wounded control), L-cysteine (4.1 mM), naringenin (1.8 mM) with 20% dimethyl sulfoxide (DMSO), serotonin (2.8 or 5.7 mM) or melatonin (4.3 mM) with 0.50% DMSO. Immediately following immersion, the midribs for each treatment were patted dry using paper towels and placed (n=5) in a breathable, high-density polyethylene bag (n=3) (Narrow Profile Produce Bags [14×18 inches] Model No. S-19156, Uline®, Pleasant Prairie, WI). Unwounded control midribs were stored in the same manner. To allow for direct comparison, each cut site on each midrib was assigned an initial discoloration value on day 1 based on the coloration of the rib. Samples were stored at 5° C. with 95-98% relative humidity (RH) for 5 d, simulating commercial storage.
Unwounded, wounded, and compound-treated wounded midrib samples were collected for untargeted metabolite analysis to identify global metabolite changes in response to melatonin application and targeted metabolite analysis to quantify chlorogenic acid a major caffeoyl compound in lettuce. For both targeted and untargeted metabolite analyses, fresh samples (500-800 mg) of the midribs from each treatment (n=3) were weighed, then immediately frozen in liquid nitrogen and stored at −80° C. for subsequent metabolite extraction. Frozen samples were extracted with a 50% methanol extraction solution containing a 1:1 (v:v) of methanol with deionized water. Samples were completely submerged in a 1:1.5 (w:v) of the sample weight (mg) to extraction solution volume (μL), respectively, and incubated at 65° C. for 90 min and then centrifuged at 9660×g for 10 min (MC-12 High Speed Micro Centrifuge, Benchmark Scientific, Edison, NJ). The supernatant was transferred to a new tube and filtered with a 0.45 μm filter (Choice, Thermo Scientific, Wilmington, DE). An aliquot of 400 μL was vacuum-dried.
For untargeted metabolite analysis, vacuum-dried samples were resuspended into 100 μL of 50% methanol solution containing an internal standard umbelliferon (18 μg mL^−1) and vortexed for 1 min. After centrifugation at 13,000×g for 15 min, the solutions were transferred to sample inserts and analyzed. […]

SMILES	chlorogenic acid concentration [1]	effect on wounding-related metabolite changes ([2]; Romaine, wounded midrib)	chlorogenic acid abundance, melatonin-treated vs wounded ([2]; Romaine, LC/MS)	number of wounding-diminished compounds increased with melatonin ([2]; of 25 diminished compounds) [compounds]	number of wounding-diminished compounds remaining decreased ([2]; of 25 diminished compounds, vs untreated wounded samples) [compounds]	number of wounding-accumulated compounds reduced in abundance upon melatonin ([2]; of 68 accumulated compounds) [compounds]	number of wounding-accumulated compounds that maintained high abundancy ([2]; of 68 accumulated compounds)
N[C@@H](CS)C(=O)O [L-cysteine]	reduced chlorogenic acid concentration						
COc1ccc2[nH]cc(CCNC(C)=O)c2c1 [melatonin]		reduces overall metabolite changes in wounded lettuce midrib; also recorded: substantially affected wounding-related metabolite changes	remained similar	16	9	64	four
